Measured values taken from patent US20250090507A1, “Methods of Treating Cancer With a B-RAF Inhibitor” (MapKure, LLC, priority 2022, published 2025).
Entries after “also recorded” stand apart in the source; their conditions may differ.

Tests used:
[1] = Permeability; type: in vitro ADME
[2] = test system: patients with tumors harboring B-RAF or K-RAS/N-RAS mutations; assay: Phase 1 study: tumor response by investigators using RECIST v1.1; type: in vivo, human
Experimental: Objective response rate was defined as the proportion of patients who had confirmed CR or PR, assessed by the investigator using RECIST v1.1.
Clinical benefit rate was defined as the proportion of patients with best overall response (BOR) of confirmed CR, PR, or SD lasting ≥16 weeks.
Tumor imaging were performed within 21 days prior to the first study treatment. Results of standard of care tests or examinations performed prior to obtaining informed consent and ≤21 days prior to the first administration of IMP may be used for the purposes of screening rather than repeating the standard of care tests. During the study, tumor imaging was performed approximately every 8 (±1) weeks in the first year and approximately every 12 (±1) weeks thereafter. Tumor assessments were required to be performed on schedule regardless of whether study treatment has been administered or held.
Tumor response was assessed by the investigators using RECIST v1.1. The same evaluator should perform assessments, if possible, to ensure internal consistency across visits.
For the analysis of ORR, DCR, and CBR, summary tables presenting the number and proportion of responders with the 2-sided exact (Clopper-Pearson) 95% CI for response rates were presented. Summary of each response category of the BOR (confirmed CR, confirmed PR, unconfirmed CR, unconfirmed PR, SD, or PD) were presented as well. Waterfall plots of maximum tumor shrinkage per patient were presented.
Treatment emergent adverse events (TEAEs) were graded per NCI CTCAE v5.0. Tumor responses were assessed by investigators using RECIST v1.1.

[3] = test system: circulating tumor DNA; assay: Circulating tumor DNA variant allele frequency in melanoma pts; type: in vivo, human; conditions: ctDNA, subset of melanoma pts
From the text: Peripheral blood samples were collected at specified timepoints as described in the schedule of assessments to be used for the longitudinal evaluation ctDNA by molecular (NGS) methodologies as pharmacodynamic biomarkers associated with response or resistance.

[4] = pKa; type: physicochemical
[5] = Solubility of the solid form; type: physicochemical; conditions: Form I
[6] = test system: B-RAF/MEK inhibitor-resistant tumors; assay: Preclinical activity towards resistant tumors; conditions: preclinical studies
[7] = pH value of the solid form; type: physicochemical; conditions: Form I
[8] = Hygroscopicity; type: physicochemical; conditions: solid form, Form I
[9] = test system: RAF family of serine/threonine kinases; assay: Preclinical RAF kinase inhibition; type: biochemical
[10] = test system: tumor cell lines harboring non-V600 B-RAF mutations; assay: Preclinical inhibition of tumor cell lines; type: cell-based; conditions: preclinical studies

## O=C1CCc2c(Oc3ccc4c(c3)[C@H]3[C@H](NC(=O)Nc5cc(F)c(F)cc5F)[C@H]3O4)ccnc2N1 [Compound A, 1-((1S,1aS,6bS)-5-((7-oxo-5,6,7,8-tetrahydro-1,8-naphthyridin-4-yl)oxy)-1a,6b-dihydro-1H-cyclopropa[b]benzofuran-1-yl)-3-(2,4,5-trifluorophenyl)urea]
[1]; class in words
  Permeability: High
[1]; not told
  Papp: > 10 ×10⁻⁶ cm/s
[2]; 33 efficacy evaluable patients
  clinical benefit rate: 42%
  disease control rate: 79%
  objective response rate: 18%
[2]; BRAF K601E/PIK3CA endometrial cancer
  Objective responders: 1
[2]; BRAF V600E LGSOC
  Objective responders: 1
[2]; BRAF V600E cholangiocarcinoma
  Objective responders: 1
[2]; BRAF V600E melanoma pts who progressed on prior BRAF/MEK and checkpoint inhibitors (1 CR, 1 PR)
  Objective responders: 2
[2]; Cohort 5 (40 mg QD)
  Patients evaluable for tumor response with PR at Week 8: 2 patients
[2]; FIG. 1, 2/2 CRC patients
  CRC patients with stable disease: 100%
[2]; FIG. 1, 4/5 responders
  responders that have melanoma: 80%
[2]; FIG. 1, 5/22 evaluable patients
  overall response rate: 22.7%
[2]; FIG. 1, 7/7 melanoma patients
  melanoma patients with stable disease, partial responses, or complete responses: 100%
[2]; FIG. 1, of 7 melanoma patients
  melanoma patients with partial responses: 3
  melanoma patients with stable disease: 3
[2]; FIG. 1, of 7 melanoma patients, 1 CT readout
  melanoma patients with complete responses: 1
[2]; KRAS G12D appendiceal cancer
  Objective responders: 1
[2]; NRAS G12S melanoma
  Objective responders: 1
[2]; NRAS Q61K melanoma
  Objective responders: 1
[2]; in 33 efficacy evaluable patients
  confirmed responses: 6
[2]; number of patients, 33 efficacy evaluable
  complete response: one
[2]; number of pts, 42 pts
  CR: 1
  SD≥24 weeks: 8
  cPR: 5
  uPR: 2
[2]; pts with no approved targeted therapy options / heavily pretreated patients
  Antitumor activity: Antitumor activity was observed; also recorded: encouraging anti-tumor activity was observed
[3]
  maximum reduction of VAF, range: 98.7-99.9%
[3]; across evaluated subjects
  maximum reduction of variant allele frequency (VAF) of detected mutations: 99.3%
[4]
  pKa: 5.28
[5]; in dimethyl sulfoxide (DMSO) and dimethylacetamide (DMA)
  Solubility: high solubility
[5]; in water
  Solubility: Low solubility
[6]
  Activity towards resistant tumors: active
[7]
  pH value: 5.76
[8]
  Hygroscopicity: Hygroscopic
[9]; monomer versus dimer
  Potency against RAF monomer & dimer: equal potency
[9]; preclinical
  Inhibitory activity against RAF kinases: potent inhibitory activity; also recorded: highly potent
[10]
  Inhibition of tumor cell lines: inhibited
